Assay results published in ChEMBL document CHEMBL3045652, “Biorational glycol diesters as dietary toxins versus bioefficacy of sucrose octanoate against lepidopteran larvae” (Ind Crops Prod, 2012).
Converted amounts (≈) assume the structure as drawn. The source made the active and inactive calls. The rule behind the calls is not given here.

Experiments:
Spodoptera litura [1] = assay: Insecticidal activity against second-instar larval stage of Spodoptera litura fed with artificial diet containing compound assessed as growth inhibition after 7 days; format: functional, organism-based; settings: for EC50: 168 h
Helicoverpa armigera [2] = assay: Insecticidal activity against second-instar larval stage of Helicoverpa armigera fed with artificial diet containing compound assessed as growth inhibition after 7 days; format: functional, organism-based; settings: for EC50: 168 h
Helicoverpa armigera [3] = assay: Antifeedant activity against third-instar larval stage of Helicoverpa armigera fed with artificial diet containing compound assessed as efficiency index of ingested food at 5.38 mg/ml after 3 days (reference value: 52%); format: functional
Spodoptera litura [4] = assay: Antifeedant activity against third-instar larval stage of Spodoptera litura fed with artificial diet containing compound assessed as relative growth rate at 4.38 mg/ml after 3 days (reference value: 1.37 +/- 0.12 mg/mg/day); format: functional
Spodoptera litura [5] = assay: Antifeedant activity against third-instar larval stage of Spodoptera litura fed with artificial diet containing compound assessed as relative consumption rate at 4.38 mg/ml after 3 days (reference value: 2.13 +/- 0.18 mg/mg/day); format: functional
Spodoptera litura [6] = assay: Insecticidal activity against second-instar larval stage of Spodoptera litura assessed as increase in mortality applied as spray at 1 to 10 mg/ml after 72 hr; format: functional, organism-based
Helicoverpa armigera [7] = assay: Insecticidal activity against second-instar larval stage of Helicoverpa armigera assessed as increase in mortality applied as spray at 1 to 10 mg/ml after 72 hr; format: functional, organism-based
Helicoverpa armigera [8] = assay: Insecticidal activity against second-instar larval stage of Helicoverpa armigera fed with artificial diet containing compound assessed as mortality after 7 days; format: functional; settings: 168 h
Spodoptera litura [9] = assay: Insecticidal activity against second-instar larval stage of Spodoptera litura fed with artificial diet containing compound assessed as mortality after 7 days; format: functional; settings: 168 h
Helicoverpa armigera [10] = assay: Antifeedant activity against third-instar larval stage of Helicoverpa armigera fed with artificial diet containing compound assessed as relative growth rate at 5.38 mg/ml after 3 days (reference value: 0.97 +/- 0.13 mg/mg/day); format: functional
Helicoverpa armigera [11] = assay: Antifeedant activity against third-instar larval stage of Helicoverpa armigera fed with artificial diet containing compound assessed as relative consumption rate at 5.38 mg/ml after 3 days (reference value: 1.88 +/- 0.14 mg/mg/day); format: functional
Spodoptera litura [12] = assay: Antifeedant activity against third-instar larval stage of Spodoptera litura fed with artificial diet containing compound assessed as efficiency index of ingested food at 4.38 mg/ml after 3 days (reference value: 64.5%); format: functional

Structure (SMILES)	growth inhibition (GI) (Spodoptera litura [1])	EC50 (Spodoptera litura [1]) [µg/mL]	growth inhibition (GI) (Helicoverpa armigera [2])	EC50 (Helicoverpa armigera [2]) [µg/mL]	further results
CCCCCC(=O)OCCOCCOC(=O)CCCCC [DIETHYLENE GLYCOL DIHEXANOATE]	Dose-dependent effect	1940 (≈ 6.42 mM)	Dose-dependent effect	3900 (≈ 12.9 mM)	
CCCCCCCC(=O)OCC(C)COC(=O)CCCCCCC	Dose-dependent effect	6210 (≈ 18.1 mM)	Dose-dependent effect	4540 (≈ 13.3 mM)	
CCCC(=O)OCC(C)COC(=O)CCC	Dose-dependent effect	4360 (≈ 18.9 mM)	Dose-dependent effect	4230 (≈ 18.4 mM)	
CC(COC(=O)C(C)C)COC(=O)C(C)C	Dose-dependent effect	7540 (≈ 32.7 mM)	Dose-dependent effect	8170 (≈ 35.5 mM)	
CCCCCCCC(=O)OCCCCCOC(=O)CCCCCCC [PENTANE-1,5-DIOCTANOATE]	Dose-dependent effect	4760 (≈ 13.4 mM)	Dose-dependent effect	4670 (≈ 13.1 mM)	
CCCCC(=O)OCC(C)OC(=O)CCCC (stereo not drawn)	Dose-dependent effect	4240 (≈ 17.4 mM)	Dose-dependent effect	5540 (≈ 22.7 mM)	
CC(C)C(=O)OCCCCCOC(=O)C(C)C [PENTANE-1,5-DI-ISOBUTANOATE]	Dose-dependent effect	7660 (≈ 31.4 mM)	Dose-dependent effect	7580 (≈ 31 mM)	
CCCC(=O)OCCOCCOC(=O)CCC [DIETHYLENE GLYCOL DIBUTANOATE]	Dose-dependent effect	1760 (≈ 7.15 mM)	Dose-dependent effect	2890 (≈ 11.7 mM)	
CCCCCCCC(=O)OCCOCCOC(=O)CCCCCCC [DIETHYLENE GLYCOL DIOCTANOATE]	Dose-dependent effect	1540 (≈ 4.3 mM)	Dose-dependent effect	2880 (≈ 8.03 mM)	
CCCC(=O)OC1CCC(OC2CCC(OC(=O)CCC)CC2)CC1 (stereo not drawn) [4-(4-O-BUTANOYLCYCLOHEXYLOXY)-CYCLOHEXYL BUTANOATE]	Dose-dependent effect	6120 (≈ 17.3 mM)	Dose-dependent effect	7230 (≈ 20.4 mM)	
CCCCCC(=O)OCCOC(=O)CCCCC [ETHYLENE GLYCOL DIHEXANOATE]	Dose-dependent effect	1780 (≈ 6.89 mM)	Dose-dependent effect	2160 (≈ 8.36 mM)	
CCCCC(=O)OC1CCC(OC2CCC(OC(=O)CCCC)CC2)CC1 (stereo not drawn) [4-(4-O-PENTANOYLCYCLOHEXYLOXY)-CYCLOHEXYL PENTANOATE]	Dose-dependent effect	7890 (≈ 20.6 mM)	Dose-dependent effect	8240 (≈ 21.5 mM)	
CC(C)C(=O)OC1CCC(OC2CCC(OC(=O)C(C)C)CC2)CC1 (stereo not drawn) [4-(4-O-ISOBUTANOYLCYCLOHEXYLOXY)-CYCLOHEXYL ISOBUTANOATE]	Dose-dependent effect	7860 (≈ 22.2 mM)	Dose-dependent effect	8110 (≈ 22.9 mM)	
CCCCC(=O)OCCOCCOC(=O)CCCC [DIETHYLENE GLYCOL DIPENTANOATE]	Dose-dependent effect	1880 (≈ 6.85 mM)	Dose-dependent effect	3870 (≈ 14.1 mM)	
CCCCC(=O)OCC(C)COC(=O)CCCC	Dose-dependent effect	7020 (≈ 27.2 mM)	Dose-dependent effect	7840 (≈ 30.3 mM)	
CCCC(=O)OCCCCCOC(=O)CCC [PENTANE-1,5-DIBUTANOATE]	Dose-dependent effect	4860 (≈ 19.9 mM)	Dose-dependent effect	4500 (≈ 18.4 mM)	
CCCC(CC)C(=O)OCCOC(=O)C(CC)CCC (stereo not drawn)	Dose-dependent effect	2800 (≈ 9.78 mM)	Dose-dependent effect	2440 (≈ 8.52 mM)	
CCCC(CC)C(=O)OC1CCC(OC2CCC(OC(=O)C(CC)CCC)CC2)CC1 (stereo not drawn) [4-(4-O-(2-ETHYL)HEXANOYLCYCLOHEXYLOXY)-CYCLOHEXYL-(2-ETHYL)HEXANOATE]	Dose-dependent effect	6270 (≈ 14.3 mM)	Dose-dependent effect	7000 (≈ 16 mM)	
CCCC(CC)C(=O)OCC(C)OC(=O)C(CC)CCC (stereo not drawn)	Dose-dependent effect	3760 (≈ 12.5 mM)	Dose-dependent effect	4860 (≈ 16.2 mM)	
CCCCCCCC(=O)OC1CCC(OC2CCC(OC(=O)CCCCCCC)CC2)CC1 (stereo not drawn) [4-(4-O-OCTANOYLCYCLOHEXYLOXY)-CYCLOHEXYL OCTANOATE]	Dose-dependent effect	5760 (≈ 12.3 mM)	Dose-dependent effect	6340 (≈ 13.6 mM)	
CC(C)C(=O)OCCOC(=O)C(C)C [ETHYLENE GLYCOL DIISOBUTANOATE]	Dose-dependent effect	5000 (≈ 24.7 mM)	Dose-dependent effect	5880 (≈ 29.1 mM)	
CCCC(=O)OCCOCCOCCOC(=O)CCC [TRIETHYLENE GLYCOL DIBUTANOATE]	Dose-dependent effect	1640 (≈ 5.65 mM)	Dose-dependent effect	2120 (≈ 7.3 mM)	ECI (Helicoverpa armigera [3]): 32.7%; Activity (Spodoptera litura [4]): 0.77 mg/mg/day; Activity (Spodoptera litura [5]): 2.06 mg/mg/day; Activity (Spodoptera litura [6]): Active; Activity (Helicoverpa armigera [7]): Active; LC50 (Helicoverpa armigera [8]): 2000 µg/mL (≈ 6.89 mM); LC50 (Spodoptera litura [9]): 2000 µg/mL (≈ 6.89 mM); Activity (Helicoverpa armigera [10]): 0.54 mg/mg/day; Activity (Helicoverpa armigera [11]): 1.67 mg/mg/day; ECI (Spodoptera litura [12]): 61%
CCCCCC(=O)OCCCCCOC(=O)CCCCC [PENTANE-1,5-DIHEXANOATE]	Dose-dependent effect	7510 (≈ 25 mM)	Dose-dependent effect	8050 (≈ 26.8 mM)	
CC(C)C(=O)OCCOCCOC(=O)C(C)C [DIETHYLENE GLYCOL DIISOBUTANOATE]	Dose-dependent effect	5120 (≈ 20.8 mM)	Dose-dependent effect	6450 (≈ 26.2 mM)	
CCCCC(=O)OCCOCCOCCOC(=O)CCCC [TRIETHYLENE GLYCOL DIPENTANOATE]	Dose-dependent effect	1540 (≈ 4.84 mM)	Dose-dependent effect	2090 (≈ 6.56 mM)	
CCCCCC(=O)OCC(C)COC(=O)CCCCC	Dose-dependent effect	7580 (≈ 26.5 mM)	Dose-dependent effect	7760 (≈ 27.1 mM)	
CCCCCC(=O)OCC(C)OC(=O)CCCCC (stereo not drawn)	Dose-dependent effect	3810 (≈ 14 mM)	Dose-dependent effect	5260 (≈ 19.3 mM)	
